According to patent US20250098679A1, “HERBICIDAL PYRIDONE DERIVATIVES” (SYNGENTA CROP PROTECTION AG, priority 2021, published 2025):

Tests used:
Type in all cases: in vivo
Conditions in all cases: evaluated after 13 days
[1] = tested on: Setaria faberi (SETFA); assay: Post-emergence Test, Setaria faberi (SETFA); set-up: key to percentage damage caused to the plant, SETFA (five-point scale): 5=81-100%, 4=61-80%, 3=41-60%, 2=21-40%, 1=0-20% damage
Method in brief: (§1)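 Sown pots in a glasshouse (24/16 °C day/night, 14 h light, 65% humidity) were sprayed with compound in acetone/water (50:50) with 0.5% Tween 20, at 1000 g/ha unless otherwise stated. Damage was assessed 13 days after spraying and scored 1–5 (5=81-100%, 1=0-20%).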

[2] = tested on: Echinochloa crus-galli (ECHCG); assay: Post-emergence Test, Echinochloa crus-galli (ECHCG); set-up: key to percentage damage caused to the plant, ECHCG (five-point scale): 5=81-100%, 4=61-80%, 3=41-60%, 2=21-40%, 1=0-20% damage
Method in brief: as §1

[3] = tested on: Zea mays (ZEAMX); assay: Post-emergence Test, Zea mays (ZEAMX); set-up: key to percentage damage caused to the plant, ZEAMX (five-point scale): 5=81-100%, 4=61-80%, 3=41-60%, 2=21-40%, 1=0-20% damage
Method in brief: as §1

[4] = tested on: Ipomoea hederacea (IPOHE); assay: Post-emergence Test, Ipomoea hederacea (IPOHE); set-up: key to percentage damage caused to the plant, IPOHE (five-point scale): 5=81-100%, 4=61-80%, 3=41-60%, 2=21-40%, 1=0-20% damage
Method in brief: as §1

[5] = tested on: Amaranthus palmeri (AMAPA); assay: Post-emergence Test, Amaranthus palmeri (AMAPA); set-up: key: 5=81-100%, 4=61-80%, 3=41-60%, 2=21-40%, 1=0-20% damage
Method in brief: as §1

[6] = tested on: Amaranthus retoflexus (AMARE); assay: Post-emergence Test, Amaranthus retoflexus (AMARE); set-up: key to percentage damage caused to the plant, AMARE (five-point scale): 5=81-100%, 4=61-80%, 3=41-60%, 2=21-40%, 1=0-20% damage
Method in brief: as §1

| Compound | percentage damage caused to the plant, SETFA (five-point scale) ([1]; 1000 g/ha) | percentage damage caused to the plant, ECHCG (five-point scale) ([2]; 1000 g/ha) | percentage damage caused to the plant, ZEAMX (five-point scale) ([3]; 1000 g/ha) | percentage damage caused to the plant, IPOHE (five-point scale) ([4]; 1000 g/ha) | percentage damage caused to the plant, AMAPA (five-point scale) ([5]; 1000 g/ha) | percentage damage caused to the plant, AMARE (five-point scale) ([6]; 1000 g/ha) | percentage damage caused to the plant, SETFA (five-point scale) ([1]; 250 g/Ha) | percentage damage caused to the plant, ECHCG (five-point scale) ([2]; 250 g/Ha) | percentage damage caused to the plant, ZEAMX (five-point scale) ([3]; 250 g/Ha) | percentage damage caused to the plant, IPOHE (five-point scale) ([4]; 250 g/Ha) | percentage damage caused to the plant, AMAPA (five-point scale) ([5]; 250 g/Ha) | percentage damage caused to the plant, AMARE (five-point scale) ([6]; 250 g/Ha) |
| --- | --- | --- | --- | --- | --- | --- | --- | --- | --- | --- | --- | --- |
| CCOC(=O)c1c(-c2ccc(Cl)c(Cl)c2)n(CC)c(Cn2ccc(C(F)(F)F)n2)c(Br)c1=O [Compound 23, ethyl 5-bromo-2-(3,4-dichlorophenyl)-1-ethyl-4-oxo-6-[[3-(trifluoromethyl)pyrazol-1-yl]methyl]pyridine-3-carboxylate] | 2 (2=21-40%) | 2 (2=21-40%) | 1 (1=0-20%) | 2 (2=21-40%) | 2 (2=21-40%) | 1 (1=0-20%) | – | – | – | – | – | – |
| CCn1c(Cn2ncc3ccccc32)cc(=O)c(C(=O)O)c1-c1ccc(Cl)c(Cl)c1 [Compound 105, 2-(3,4-dichlorophenyl)-1-ethyl-6-[indazol-1-ylmethyl)-4-oxo-pyridine-3-carboxylic acid] | 2 (2=21-40%) | 3 (3=41-60%) | 1 (1=0-20%) | 4 (4=61-80%) | 2 (2=21-40%) | 2 (2=21-40%) | 0 | 3 (3=41-60%) | 0 | 0 | 0 | 0 |
| CCOCc1ccnn1Cc1cc(=O)c(C(=O)O)c(-c2ccc(Cl)c(Cl)c2)n1CC [Compound 188, 2-(3,4-dichlorophenyl)-6-[[5-(ethoxymethyl)pyrazol-1-yl]methyl]-1-ethyl-4-oxo-pyridine-3-carboxylic acid] | 0 | 0 | 0 | 1 (1=0-20%) | 1 (1=0-20%) | 0 | – | – | – | – | – | – |
| CCn1c(Cn2nc3c(c2C(F)F)COCC3)cc(=O)c(C(=O)O)c1-c1ccc(Cl)c(Cl)c1 [Compound 97, 2-(3,4-dichlorophenyl)-6-[[3-(difluoromethyl)-6,7-dihydro-4H-pyrano[4,3-c]pyrazol-2-yl]methyl]-1-ethyl-4-oxo-pyridine-3-carboxylic acid] | – | – | – | – | – | – | 0 | 1 (1=0-20%) | 1 (1=0-20%) | 0 | 1 (1=0-20%) | 1 (1=0-20%) |
| CCn1c(Cn2ccc(C(F)(F)F)n2)cc(=O)c(C(=O)O)c1-c1ccc(S(C)(=O)=O)c(Cl)c1 [Compound 129, 2-(3-chloro-4-methylsulfonyl-phenyl)-1-ethyl-4-oxo-6-[[3-(trifluoromethyl)pyrazol-1-yl]methyl]pyridine-3-carboxylic acid] | 0 | 1 (1=0-20%) | 1 (1=0-20%) | 0 | 0 | 0 | – | – | – | – | – | – |
| CCn1c(Cn2cc(S(C)(=O)=O)cn2)cc(=O)c(C(=O)O)c1-c1ccc(Cl)c(Cl)c1 [Compound 90, 2-(3,4-dichlorophenyl)-1-ethyl-6-[(4-methylsulfonylpyrazol-1-yl)methyl]-4-oxo-pyridine-3-carboxylic acid] | 0 | 1 (1=0-20%) | 0 | 0 | 1 (1=0-20%) | 1 (1=0-20%) | – | – | – | – | – | – |
| CCn1c(Cn2cnc(C(=O)OC)c2)cc(=O)c(C(=O)O)c1-c1ccc(Cl)c(Cl)c1 [Compound 76, 2-(3,4-dichlorophenyl)-1-ethyl-6-[(4-methoxycarbonyl-imidazol-1-yl)methyl]-4-oxo-pyridine-3-carboxylic acid] | 1 (1=0-20%) | 0 | 1 (1=0-20%) | 0 | 1 (1=0-20%) | 1 (1=0-20%) | – | – | – | – | – | – |
